Reference: patent publication US20150290234A1, “TARGETED INTRACELLULAR DELIVERY OF ANTIVIRAL AGENTS” (BBB Holding B.V., priority 2007, published 2015)
≈ marks a conversion by molar mass, not a printed value. Like-named read-outs stand apart in the source and are kept apart here.

Columns and labels:
[1] = tested on: viral DNA polymerase; details: cited from earlier work
[2] = tested on: CMV-infected cells; details: cited from earlier work
[3] = cited from earlier work
[4] = cited from earlier work; remark: listed apart in the source
[5] = tested on: LLC-PK1 cells; experiment: MTT-assay; details: 10 mg/mL RBV, after 5 h, found to be toxic
[6] = tested on: YFV; experiment: microbe, parasite or virus in culture; assay type: cell-based; details: Yellow fever virus, Vero, 120 h, read-out: EC50 for inhibition of RNA synthesis [EC50 RNA]
[7] = tested on: influenza; details: therapy started within 48 hours of the onset of symptoms; cited from earlier work
[8] = tested on: LLC-PK1 cells; experiment: Cell uptake and localization on coverslips, fluorescence microscope; assay type: cell-based, porcine; details: FIG. 1
Description: (§1) Cells with a known expression of the DTR were used from several species and origins, including porcine kidney epithelial cells (LLC-PK1), bovine brain capillary endothelial cells (BCEC), monkey kidney fibroblast cells (COS-1), and human glioblastoma cells. In particular, LLC-PK1 cells were incubated for 1 h in 24-wells plates on 400 microliter DMEM+FCS supplemented with 100 microgram/ml heparin, before 5 microgram CRM197-FITC or HRP-FITC was added to the well. Two hours later the cells were washed 3 times and the cells were lysated in 100 microliter 0.1 N NaOH, and fluorescence was determined at 480/530 nm in a fluostar plate reader. Cell protein per well was determined with a Biorad DC assay and fluorescence in the cell lysate was calculated per mg cell protein. In a separate group of cells, an access of 100 microgram free CRM197 was added to the well, 30 minutes before the CRM197-FITC conjugate was added to the medium. […] In a separate set of experiments, LLC-PK1 cells were cultured in similar conditions on coverslips and exposed to CRM197-FITC, HRP-FITC or sodium fluorescein. After fixation and mounting with vectashield with DAPI for nuclear staining, the coverslips were analyzed on a fluorescence microscope and photographed. […] Identical results were found on BCEC, COS-1 and human glioblastoma cells, also after several time points (up to 24 hours after exposure).

[9] = Pharmacokinetics of sodium fluorescein after intravenous bolus; details: rats, 1 mg intravenous bolus
[10] = target: diphtheria toxin receptor (DTR) expressed on LLC-PK1 cells (porcine kidney epithelial cells) (porcine) (UniProt Q01580); experiment: cell-based or functional assay
[11] = target: T1, DTR expressed on LLC-PK1 cells (Sus scrofa, UniProt Q01580); experiment: Receptor-specific cell uptake, fluorescence in cell lysate; assay type: cell-based, porcine; details: LLC-PK1, 5 microgram per well, 2 hours
T1 construct: Cells with a known expression of the DTR were used from several species and origins; endogenous in cells; host or cells: LLC-PK1 (porcine kidney epithelial cells)
Description: as §1

[12] = Biodistribution of FITC conjugates; details: hamster, 90 minutes after i.v. injection, FIG. 4
[13] = Plasma pharmacokinetics of FITC-labelled protein after intravenous bolus; details: hamster, i.v. 1 mg FITC-labelled protein, calculated sixty minutes after injection
[14] = target: T2, HRP-PEG-liposomes (UniProt P00433 31-338); experiment: fluorescence microscopy of LLC-PK1 cells after 4 hours incubation
T2 sequence (looked up): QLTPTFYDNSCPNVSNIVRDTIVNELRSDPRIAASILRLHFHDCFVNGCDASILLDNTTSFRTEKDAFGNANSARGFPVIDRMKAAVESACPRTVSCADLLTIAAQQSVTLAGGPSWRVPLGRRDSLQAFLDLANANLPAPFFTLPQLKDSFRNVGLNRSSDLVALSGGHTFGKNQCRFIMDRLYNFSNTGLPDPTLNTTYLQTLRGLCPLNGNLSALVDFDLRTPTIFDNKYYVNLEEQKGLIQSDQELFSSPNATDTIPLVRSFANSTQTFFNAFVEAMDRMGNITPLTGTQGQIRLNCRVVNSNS

[15] = target: T3, HRP-FITC (horseradish peroxidase labelled with FITC) (UniProt P00433 31-338); experiment: uptake by LLC-PK1 cells for 2 h, fluorescence of the cell lysate; fluorescence microscopy also showed no signal
T3 construct: also called HRP-FITC conjugate
T3 sequence (looked up): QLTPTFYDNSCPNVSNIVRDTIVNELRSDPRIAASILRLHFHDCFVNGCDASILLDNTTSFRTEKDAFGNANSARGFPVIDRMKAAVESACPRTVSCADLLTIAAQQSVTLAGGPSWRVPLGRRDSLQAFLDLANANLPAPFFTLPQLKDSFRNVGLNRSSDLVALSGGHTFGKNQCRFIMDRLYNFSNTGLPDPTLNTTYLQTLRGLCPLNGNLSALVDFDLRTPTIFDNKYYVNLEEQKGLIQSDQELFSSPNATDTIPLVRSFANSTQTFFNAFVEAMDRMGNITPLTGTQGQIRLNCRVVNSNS

[16] = target: T3, HRP-FITC (horseradish peroxidase …); experiment: fluorescence microscopy of cells on coverslips
[17] = 500 mg of probenecid every six hours

Which results are given for `Nc1nc2c(ncn2COCCOP(=O)(O)OP(=O)(O)OP(=O)(O)O)c(=O)[nH]1` [Aciclo-GTP]?
affinity to viral relative to cellular polymerase [1]: approximately 100 times; half-life compared to GCV-TP in infected cells [2]: four- to five-fold shorter

With `Nc1nc2c(ncn2COCCO)c(=O)[nH]1` [Aciclovir] as the molecule, how does the water solubility [3] read?
Its water solubility is “poorly water soluble”.

And the “protein binding in plasma” value ([4]; in vivo)?
The value was 30%.

And the oral bioavailability [4]?
Its oral bioavailability is 10-20%.

And the “time of peak plasma concentration” value ([4]; orally administered)?
Its value is 1 to 2 h.

What does the source list for `CCOC(=O)C1=C[C@@H](OC(CC)CC)[C@H](NC(C)=O)[C@@H](N)C1` [Oseltamivir, (3R,4R,5S)-4-acetylamino-5-amino-3-(1-ethylpropoxy)-1-cyclohexene-1-carboxylic acid ethyl ester]?
change of half-life with probenecid [4, 17]: doubled; change of peak plasma concentration (Cmax) with probenecid [4, 17]: doubled; increase of overall systemic exposure (AUC) with probenecid [4, 17]: 2.5 fold; (elimination) half-life ([4]; in vivo): 6 to 10 h; oral bioavailability [4]: 75%

For `NC(=O)c1ncn([C@@H]2O[C@H](CO)[C@@H](O)[C@H]2O)n1` [RBV, 1-beta-D-ribofuranosyl-1,2,4-triazole-3-carboxamide], which cell viability [5] is on record?
Its cell viability is 60%.

And the EC50 [6]?
The EC50 was 12.3 ± 5.6 µg/mL (≈ 50.4 µM).

What about the “absorption from the GI tract with a fatty meal” value ([4]; fatty meal) of the same molecule?
The value was “about 75%”.

And the “absorption from the GI tract” value ([4]; in vivo)?
Its value is “about 45%”.

And the “fraction of absorbed drug excreted into the urine unchanged” value ([4]; in vivo)?
Its value is “About a third”.

And the “mean half-life for multiple doses in the body” value ([4]; multiple doses)?
The value was “about 12 days”.

And the “half-life after single dose” value ([4]; single dose)?
The value was 0.5 h.

For `CC(=O)NC1C(NC(=N)N)C=C(C(=O)O)OC1C(O)C(O)CO` (centres unmarked) [Zanamivir, 5-acetamido-4-guanidino-6-(1,2,3-trihydroxypropyl)-5,6-dihydro-4H-pyran-2-carboxylic acid], which “(elimination) half-life” value ([4]; in vivo) is on record?
Its value is 2.5 to 5.1 h.

And the “protein binding in plasma” value ([4]; in vivo)?
The value was less than 10%.

What about the oral bioavailability [4] of the same molecule?
Its oral bioavailability is 2%.

What about the “reduction of time to symptom resolution” value [7] of the same molecule?
Its value is 1.5 days.

For `Nc1nc(O)c2ncn(COC(CO)CO)c2n1` [ganciclovir], which half-life ([4]; depending on renal function) is on record?
The half-life was 2 to 6 h.

What about the “elimination time in end-stage renal disease” value ([4]; end-stage renal disease) of the same molecule?
Its value is “over 24 hours”.

What about the “absorption of the oral form, fasting” value ([4]; fasting) of the same molecule?
Its value is “about 5%”.

And the “concentration in the central nervous system relative to plasma level” value ([4]; in vivo)?
Its value is “about 50 % of the plasma level”.

And the “plasma drug eliminated unchanged in the urine” value ([4]; in vivo)?
The value was “About 90%”.

And the oral bioavailability [4]?
Its oral bioavailability is “approximately 5%”.

What about the “absorption of the oral form, with food” value ([4]; with food) of the same molecule?
The value was “about 8%”.

Which “fluorescence signal / uptake in cells” value [8] does the source give for `O=C([O-])c1ccccc1-c1c2ccc(=O)cc-2oc2cc([O-])ccc12.[Na+].[Na+]` [sodium fluorescein] here?
The value was “No fluorescence signal was found”.

What about the AUC [9] of the same molecule?
Its AUC is 13 microgram*min/ml.

What about the half-life [9] of the same molecule?
The half-life was 0.583 h.

Which cell uptake: CRM197-FITC in the cell lysate per mg cell protein after 2 hours (microgram per mg cell protein) [10] does the source give for “CRM197-FITC conjugate (from UniProt P00588 33-567) (ligand)” here?
Its cell uptake: CRM197-FITC in the cell lysate per mg cell protein after 2 hours (microgram per mg cell protein) is 0.54.

For “HRP-FITC: horseradish peroxidase (HRP) labelled with FITC as a control protein”, which “fluorescence signal / uptake in cells” value [8] is on record?
The value was “No fluorescence signal was found”.

What about the “conjugate found in the cell lysates” value [11] of the same molecule?
The value was “No HRP-FITC was found”.

And the “accumulation in tissues (brain, heart, lung, liver, spleen, kidney)” value [12]?
Its value is “not (or hardly) detectable in these tissues”.

What about the plasma half-life [13] of the same molecule?
Its plasma half-life is 0.633 h.

B1: diphtheria toxin receptor (DTR) expressed on LLC-PK1 cells (porcine kidney epithelial cells) (receptor, UniProt Q01580 63-148, looked up)
chain: DLEEADLDLLRADFSSKPQALATPSKEERGKRKKKGKGLGKKRDPCLRKYKDFCIHGECKYVKELRAPSCICHPGYHGERCHGLSL
notes: whole, on cells; also called HB-EGF
Does B1 bind [14]?
Result: no binding

Does B1 bind [15]?
Result: no binding

B2: diphtheria toxin receptor (DTR) on human glioblastoma cells (receptor, UniProt Q99075 63-148, looked up)
chain: DLQEADLDLLRVTLSSKPQALATPNKEEHGKRKKKGKGLGKKRDPCLRKYKDFCIHGECKYVKELRAPSCICHPGYHGERCHGLSL
notes: whole, on cells; also called HB-EGF precursor
Does B2 bind [16]?
Result: no binding

B3: diphtheria toxin receptor (DTR) on bovine brain capillary endothelial cells (BCEC) (receptor)
chain: DLEEANLDLFRAAFSSKPQALATPSKEERGKRKKKGKGLGKKRNPCLRRYKDFCIHGECKYVKELRVPTCICHPGYHGERCHGLSL
notes: as for B2
Does B3 bind [16]?
Result: no binding
